Here are results for 15 compounds from patent US11118065B2, “Fluorenylaminoketone photoinitiator, preparation method thereof, and UV photocurable composition containing same” (CHANGZHOU TRONLY ADVANCED ELECTRONIC MATERIALS CO., LTD., priority 2017, dated 2021).

This data set in a line: Test of solubility property. The settings on record: for HDDA (g/100 g): largest weight dissolved in 100 g of 1,6-hexanediol diacrylate (HDDA) at 20° C.; for Acetone (g/100 g): largest weight dissolved in 100 g of acetone at 20° C.

Molecules are shown by their SMILES. Where only a bound is given, the exact number is not on record here.

With `C=CCC1(CC=C)c2cc(OC)ccc2-c2ccc(C(=O)C(C)(C)N3CCOCC3)cc21` [Compound 4], the “HDDA (g/100 g)” value is listed as >15 g/100 g and the “Acetone (g/100 g)” value is on record as >30 g/100 g.

As to `CCCCC1(CCCC)c2ccccc2-c2ccc(C(=O)C(C)(C)N3CCOCC3)cc21` [Compound 5], the “HDDA (g/100 g)” value was >15 g/100 g and the “Acetone (g/100 g)” value is on record as >30 g/100 g.

Consider `CCCCC1(CCCC)c2cc(C(=O)c3ccccc3)ccc2-c2ccc(C(=O)C(C)(C)N3CCOCC3)cc21` [Compound 9], for which the “HDDA (g/100 g)” value is on record as >15 g/100 g and the “Acetone (g/100 g)” value is listed as >30 g/100 g.

Turning to `CCCCC1(CCCC)c2cc(C(=O)C(CC)(Cc3ccccc3)N(C)C)ccc2-c2ccc(N3CCOCC3)cc21` (stereo not shown) [Compound 14], the “HDDA (g/100 g)” value is >15 g/100 g and the “Acetone (g/100 g)” value is >30 g/100 g.

Consider `CC(C)(C(=O)c1ccc2c(c1)Cc1cc(C(=O)C(C)(C)N3CCCCC3)ccc1-2)N1CCCCC1` [Compound 24], for which the “HDDA (g/100 g)” value was >15 g/100 g and the “Acetone (g/100 g)” value is given as >30 g/100 g.

For `C=CCC1(CC=C)c2ccccc2-c2ccc(C(=O)C(CC)(Cc3ccccc3)N(C)C)cc21` (stereo not shown) [Compound 34], the “HDDA (g/100 g)” value is reported as >15 g/100 g and the “Acetone (g/100 g)” value is given as >30 g/100 g.

On to `CCC(Cc1ccccc1)(C(=O)c1ccc2c(c1)C(C)(C)c1cc(N3CCOCC3)ccc1-2)N(C)C` (stereo not shown) [Compound 38, 2-benzyl-2-dimethylamino-9,9-dimethyl-1-(7-morpholinofluorenyl)butanone], for which the “HDDA (g/100 g)” value is >15 g/100 g and the “Acetone (g/100 g)” value is on record as >30 g/100 g.

With `C=CCC(CC)(C(=O)c1ccc2c(c1)C(C)(C)c1cc(N3CCCCC3)ccc1-2)N(C)C` (stereo not shown) [Compound 39, 2-allyl-2-dimethylamino-9,9-dimethyl-2-(7-piperidinylfluorenyl)butanone], the “HDDA (g/100 g)” value is >15 g/100 g and the “Acetone (g/100 g)” value is listed as >30 g/100 g.

Regarding `CCCCC1(CCCC)c2ccccc2-c2ccc(C(=O)C(CC)(Cc3ccccc3)N(C)C)cc21` (stereo not shown) [Compound 40, 2-benzyl-2-dimethylamino-9,9-dibutylfluorene-1-butanone], the “HDDA (g/100 g)” value is >15 g/100 g and the “Acetone (g/100 g)” value is given as >30 g/100 g.

In the case of `CCCCC1(CCCC)c2cc(C(=O)c3ccccc3)ccc2-c2ccc(C(=O)C(CC)(Cc3ccccc3)N(C)C)cc21` (stereo not shown) [Compound 41, 2-benzyl-2-dimethylamino-9,9-dibutyl-1-(7-benzoyl)butanone], the “HDDA (g/100 g)” value is listed as >15 g/100 g and the “Acetone (g/100 g)” value is reported as >30 g/100 g.

Turning to `CCCCN(CCCC)c1ccc2c(c1)C(C)(C)c1cc(C(=O)C(CC)(Cc3ccccc3)N(C)C)ccc1-2` (stereo not shown) [Compound 42], the “HDDA (g/100 g)” value is listed as >15 g/100 g and the “Acetone (g/100 g)” value is given as >30 g/100 g.

In the case of `CCCC1(CCC)c2cc(C(=O)C(CC)(Cc3ccccc3)N(C)C)ccc2-c2ccc(N3CCCCC3)cc21` (stereo not shown) [Compound 43], the “HDDA (g/100 g)” value is listed as >15 g/100 g and the “Acetone (g/100 g)” value is >30 g/100 g.

For `CCC(Cc1ccccc1)(C(=O)c1ccc2c(c1)C(C)(C)c1cc(N(CCO)CCO)ccc1-2)N(C)C` (stereo not shown) [Compound 45], the “HDDA (g/100 g)” value is on record as >15 g/100 g and the “Acetone (g/100 g)” value was >30 g/100 g.

As for `CCC(Cc1ccccc1)(C(=O)c1ccc(N2CCOCC2)cc1)N(C)C` (stereo not shown) [Irgacure 369, 2-benzyl-2-dimethylamino-1-(4-morpholinophenyl)butanone, reference compound], the “HDDA (g/100 g)” value worked out at 5 g/100 g and the “Acetone (g/100 g)” value turned out to be 17 g/100 g. The solubility entry (in the UV curing ink formulation, about 10% of butanone solvent required to dissolve completely) is “relatively poor”.

Consider `CCC(Cc1ccc(C)cc1)(C(=O)c1ccc(N2CCOCC2)cc1)N(C)C` (stereo not shown) [Irgacure 379, 2-(4-methylbenzyl)-2-dimethylamino-1-(4-morpholinophenyl)butanone, reference compound], for which the “HDDA (g/100 g)” value was determined as 11 g/100 g and the “Acetone (g/100 g)” value stood at 24 g/100 g.
